How the values were obtained:
[1] = system: heme oxygenase-1 (HO-1); conditions: at nanomolar concentrations; in vitro and in vivo; Liby et al. (2005); cited from earlier work
[2] = target: T1, IKKb (Homo sapiens, UniProt O14920); conditions: via binding to Cys179; cited from earlier work
T1 sequence (O14920 1-756): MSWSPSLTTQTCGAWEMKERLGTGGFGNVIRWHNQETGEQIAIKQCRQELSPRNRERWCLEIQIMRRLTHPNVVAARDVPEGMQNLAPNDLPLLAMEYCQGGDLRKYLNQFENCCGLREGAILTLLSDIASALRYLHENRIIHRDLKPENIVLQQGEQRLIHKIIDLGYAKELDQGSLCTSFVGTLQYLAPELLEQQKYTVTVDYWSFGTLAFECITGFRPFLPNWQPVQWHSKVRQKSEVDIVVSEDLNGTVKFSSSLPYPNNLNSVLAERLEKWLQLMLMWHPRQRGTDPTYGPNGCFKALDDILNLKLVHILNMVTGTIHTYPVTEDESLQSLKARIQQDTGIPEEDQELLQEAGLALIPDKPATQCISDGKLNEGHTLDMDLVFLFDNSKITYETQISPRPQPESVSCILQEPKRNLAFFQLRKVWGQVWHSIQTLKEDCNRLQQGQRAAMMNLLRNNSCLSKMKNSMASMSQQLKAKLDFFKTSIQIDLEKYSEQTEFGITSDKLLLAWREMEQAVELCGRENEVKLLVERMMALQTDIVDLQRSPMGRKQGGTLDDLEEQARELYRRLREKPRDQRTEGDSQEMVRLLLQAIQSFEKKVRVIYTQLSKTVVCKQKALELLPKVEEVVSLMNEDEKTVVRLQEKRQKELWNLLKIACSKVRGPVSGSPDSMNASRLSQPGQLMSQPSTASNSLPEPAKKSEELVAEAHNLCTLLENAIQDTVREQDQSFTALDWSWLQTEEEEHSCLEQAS

[3] = system: NF-κB; conditions: human leukemia cell lines and patient samples; Shishodia et al. (2006); cited from earlier work
[4] = monkeys, equivalent dosages orally in gelatin capsules; Form B versus Form A
[5] = system: Stage IV pancreatic cancer; conditions: compared with the combination; cited from earlier work
[6] = mice; cited from earlier work
[7] = cited from earlier work

For `CC1(C)CC[C@]2(C(=O)O)CC[C@]3(C)[C@H](C(=O)C=C4[C@@]5(C)C=C(C#N)C(=O)C(C)(C)[C@@H]5CC[C@]43C)[C@@H]2C1` [CDDO, 2-cyano-3,12-dioxooleana-1,9(11)-dien-28-oic acid], the “Expression of heme oxygenase-1 (HO-1) enzyme” value [1] is listed as “rapidly increase the expression”.

For `CC1(C)CC[C@]2(C(=O)n3ccnc3)CC[C@]3(C)[C@H](C(=O)C=C4[C@@]5(C)C=C(C#N)C(=O)C(C)(C)[C@@H]5CC[C@]43C)[C@@H]2C1` [CDDO-Im], the “Inhibition of IKKb activity” value [2] is given as “direct inhibitors” and the “Expression of heme oxygenase-1 (HO-1) enzyme” value [1] is given as “rapidly increase the expression”.

For `COC(=O)[C@]12CCC(C)(C)CC1C1C(=O)C=C3[C@@]4(C)C=C(C#N)C(=O)C(C)(C)[C@@H]4CC[C@@]3(C)[C@]1(C)CC2` (stereo partly shown) [CDDO-Me], the “Inhibition of constitutive and inducible NF-κB” value [3] is listed as “potently inhibits” and the “Inhibition of IKKb activity” value [2] is listed as “direct inhibitors”.

For `COC(=O)[C@]12CCC(C)(C)C[C@H]1[C@H]1C(=O)C=C3[C@@]4(C)C=C(C#N)C(=O)C(C)(C)[C@@H]4CC[C@@]3(C)[C@]1(C)CC2` [Form B], the Bioavailability [4] was “surprisingly better than that of Form A”.

For `Nc1ccn([C@@H]2O[C@H](CO)[C@@H](O)C2(F)F)c(=O)n1` [gemcitabine, 2′,2′-difluoro-2′-deoxycytidine], the “Clinical activity of gemcitabine alone (historical)” value [5] is listed as “has not produced this level of clinical activity”, the Maximum tolerated dose [6] is listed as 300 mg/kg/dose and the Maximum administered dose ([7]; humans) is listed as 1000 mg/m^2. The “Dose reported to be tolerated in patients” value ([7]; prolonged infusion for up to 12 hours) was 10 mg/m^2/min.

From patent publication US20090048205A1, “COMBINATION THERAPY WITH SYNTHETIC TRITERPENOIDS AND GEMCITABINE” (priority 2007, published 2009)
